Reference: a melting point compilation (Tetko et al.; mined from patent text by program, amines drawn as free bases though some values may be those of a salt)

melting point	SMILES
114 °C	Cc1cc(-c2cc(C(F)(F)F)n3nccc3n2)ccc1Cl
137 to 139 °C	Clc1ccc(-c2cc(C3CCN(Cc4ccccc4Cl)CC3)n[nH]2)cc1
173 to 175 °C	CC(=O)Oc1ccc2c(c1)CCC1C2CCC2(C)C1CC(O)C2N(C)C (stereo not given)
157 to 158 °C	CCOC(=O)c1c(C)nn(C)c1S(=O)(=O)NC(=S)Nc1nc(C)cc(OC)n1
132 °C	Brc1nc(-c2ccccc2)nc2ccccc12
100 to 102 °C	COP(=O)(OC)C(O)=Cc1ccc(C)cc1
129 °C	COC(=O)C1=C(C(=O)OC)c2c(sc3ccccc23)CC1
250 °C	COc1ccc(-c2nc3cc(Cl)c(Cl)cc3[nH]2)cc1[N+](=O)[O-]
96 to 98 °C	COc1ccc(C2=CS(=O)CCC2)cc1OC1CCCC1 (stereo not given)
> 250 °C	CCN(C)c1nc2cc(NC(=O)c3c(C(=O)O)cnn3C)ccn2n1
277 to 279 °C	NS(=O)(=O)c1ccc(-c2[nH]c3ccccc3c2-c2ccc(Br)cc2)cc1
242 °C	COC(=O)c1cnc(Nc2cc(N3CCN(CCO)CC3)nc(C)n2)s1
150 to 153 °C	N#Cc1c(Nc2c(F)cccc2F)cccc1Oc1ccccc1
195 to 200 °C	Cc1cccc(C(=O)n2c3c(c4ccccc42)CC(C(=O)O)(C(=O)O)CC3)c1
115 to 118 °C	CC(=N)Nc1cccc(O)c1
162 to 163 °C	Cc1ccc(-c2nn(Cc3ccccc3)c(N)c2C#N)cc1
120 to 124 °C	CCC(O)(c1cccc(NS(=O)(=O)CC)c1)c1c[nH]cn1 (stereo not given)
118 to 119 °C	C=CCOc1ccc(C(=O)c2ccnn2C)c(Cl)c1Cl

melting point	SMILES
212 to 214 °C	COc1ccc2c(c1)CCC1CCNC(=O)C(CNC(C)C)=C21 (stereo not given)
174 to 176 °C	NC1(c2ccccc2Cl)C(=O)Nc2ccc(Cl)cc21 (stereo not given)
154 °C	O=C1CC(Br)C(=O)N1c1ccc(F)cc1 (stereo not given)
95 °C	CC(C)(C)OC(=O)COc1cc(NC(=O)OC(C)(C)C)c(NC(=O)CC(=O)c2cccc(C#N)c2)cc1C#Cc1ccccc1
172 to 173 °C	COc1cc(C)nc(NC(=O)NS(=O)(=O)c2ccccc2C(=O)Nc2nncs2)n1
39 to 40 °C	CCC(=O)c1ccc(OC)c(C)c1C
94 to 95 °C	COc1cc(C)cc(Sc2cccc(F)c2C#N)c1
241 to 249 °C	O=C(O)c1nc(NCC(c2ccccc2)c2ccccc2)c2nc[nH]c2n1
188 to 190 °C	CN(C)S(=O)(=O)c1cc(-c2csc(=Nc3ccc(O)cc3)n2C)ccc1Cl
91 °C	CCC(=O)N(Cc1cccc(-c2ccccc2)c1)c1cccc(-c2nnn[nH]2)c1
96 °C	CCOC(=O)CNC(=O)CCc1cc(Cl)ccc1C(=O)CCCNC(C)=O
148 to 151 °C	Cc1ccc(-c2ccc3c(c2)C=C(C(=O)NC2CCN(CC4=CCCCCCC4)CC2)CCO3)cc1
245 °C	O=C1NC(=S)C(=Cc2cc(O)c(O)c([N+](=O)[O-])c2)O1
138 to 139 °C	C=CCOC(=O)c1ccc(OC(=O)c2ccc(OC)c(C34CC5CC(CC(C5)C3)C4)c2)c(C)c1
124 °C	c1ccc(-c2ccc(CCN3CCN(c4ccccc4)CC3)s2)cc1
253 to 255 °C	N#Cc1cnc2cc3ccccc3cc2c1Cl
88 to 89 °C	O=S(=O)(c1ccc(Cl)cc1)C(c1cccc(CCc2ccccn2)n1)c1cc(F)ccc1F (stereo not given)
193 to 198 °C	COc1ccc2nnc(-c3ncc([N+](=O)[O-])n3C)n2n1

SMILES	melting point
Cc1cccc2c(Nc3ccc(OCCCCN(CCCl)CCCl)cc3)c3cccc(C(=O)NCCN(C)C)c3nc12	166 to 167 °C
COC(=O)c1ccc(-c2ccc(-c3ccc4c(c3)C(C)(C)CCC4(C)C)[nH]2)cc1	176 to 179 °C
O=C1c2ccccc2-n2cnc(Cl)c2[C@@H]2CCCN12	233 to 234 °C
O=C1NC2C(CC(O)C(O)C2O)c2cc3c(c(O)c21)OCO3 (stereo not given)	182 °C
